“Also recorded” adds a separate entry of the source. Where a name gives a salt, the structure may show the parent alone.
What was measured:
[1] = tested on: awake guinea pig (cholinergically-induced bronchial cramps); assay: inhalative provocation with acetyl-β-methylcholine chloride aerosol on awake guinea pigs (broncholytic/protective action); type: in vivo; details: for EC50: Cavia porcellus, read-out: EC50, average effective concentration w of acetyl-β-methylcholine chloride (provocation substance) after pre-treatment; for probit analysis reaction % observed: animals reacting with dyspnoea; for probit analysis reaction % calculated: probit regression
Experimental: animal strain: Pirbright white test substance: trospium chloride (MP 194) (M.W. 428) dosage: 3×10^-7 mole ml^-1 kg^-1 mode of administration: intraperitoneally test substance: dehydrotrospium chloride (WG 71) (M.W. 426) […]
reference substance: atropine hydrochloride (Serva; M.W. 325.8) […]
reference substance: isoproterenol (Fluka; M.W. 247.72) dosage: […]
further substances: acetyl-β-methylcholine chloride (Sigma; M.W. 195.7) mode of administration: 0.5 ml. min^-1 by inhalation.
The guinea pigs intended for an experiment are, after an acclimatization time of at least 8 days, subjected twice to an aerosol of 0.1% acetyl-β-methylcholine chloride solution since, as is known from experience, during the first two inhalative provocations, the animals react with more distinct respiratory disturbances than in the case of the subsequent provocations (adaptation). If, in the case of the two inhalation phases, a nonsensitivity (absence of respiratory disturbances) is observed towards the exposure, these animals are excluded from the actual experiment.
For the purpose of aerosol provocation, the guinea pigs are placed individually in an inhalation chamber (see Section 3.6 hereinafter) in which 0.5 ml. of solution per minute are atomized as droplet aerosol by means of a special nozzle (Rhema, Hofheim, Germany). […] With the help of a stopwatch, there is recorded the time from the commencement of inhalation to the appearance of the asphyctic state; the animals are immediately removed from the inhalation chamber and, as a rule, recover in a very short period of time (recovery of consciousness and normalization of breathing). If, within 180 seconds, no dysponea occurs, the inhalation is discontinued.
One aerosol concentration is tested per test day; the time between the individual aerosol provocations is at least 1 week.
The inhalation chamber is a Plexiglass container specially made for this purpose, the lid of which can be closed in an air-tight manner by means of rubber sealing and grip closure means. The internal measurements of the chamber are 285×190×180 mm., which corresponds to a volume of about 9.75 liters. The special nozzle (Rhema, Hofheim, Germany, order No. 504104) is fixed to a recess on the lid and ensures a uniform supply of the available chamber space with the aerosol. The provocation solution is supplied to the nozzle via an infusion pump (Braun, Melsungen, Germany) (0.5 ml./minute) and there atomized with a superpressure of 180 kPa from an attached pressure gas bottle (artificial air, KW-free). For reasons of safety, the aerosol provocation is carried out under a ventilator.
The EC50, as well as the related confidence interval (p>95%), are determined from the probit regression lines of the percentage values (v. supra) provided with weight coefficients after line adaptation by the "maximum likelihood" method (10 iterations). Furthermore, there is examined the adaptation of the lines to the observed data by means of the chiquadrat test. For the evaluation, a calculation programme is commercially available (Olivetti).

[2] = molecular target: T1, isolated tracheal spirals of the guinea pig (Cavia porcellus, UniProt H0W1Z3); assay: anticholinergic effectiveness on isolated tracheal spirals (antagonism against acetyl-β-methylcholine chloride); details: for antagonism against acetyl-β-methylcholine chloride / anticholinergic effectiveness (in words): isolated guinea pig tracheal spirals
T1 construct: the whole of the trachea is roughly freed beginning from the larynx up to the tracheal bifurcation, removed and transferred; from tissue; host or cells: isolated trachea (spiral strips) of male Pirbright white guinea pigs
From the text: A model for this is the measurement of the anticholinergic effectiveness on isolated tracheal spirals of the guinea pig.
The test substance used was 3α-benziloyloxynortropane-8-spiro-1'-pyrrolidinium chloride (trospium chloride; MP 194), ipratropium bromide being used as comparison substance.
There is to be determined the anticholinergic effectiveness of MP 194 in comparison with the reference substance ipratropium bromide on the isolated tracheal spirals of the guinea pig.
3.1.1. animal species: guinea pig
3.1.2. animal strain: Pirbright white
3.3.1. test substance (test antagonist) trospium chloride (MP 194) (M.W. 428)
3.3.2. reference substance (reference antagonist) ipratropium bromide (Atrovent) (M.W. 412.4)
3.3.3.1. acetyl-β-methylcholine chloride (Sigma) (M.W. 195.7)
The guinea pig is stunned by a blow on the neck. Subsequently, the whole of the trachea is roughly freed beginning from the larynx up to the tracheal bifurcation, removed and transferred to tempered (37° C.) and carbogenized tyrode solution. After surrounding connective tissue has been removed as far as possible, the preparation is cut up spirally by means of fine scissors at an angle of about 45° and separated into two equal sized sections. After weighing, both preparations are provided proximally and distally with a silk thread. One thread serves for fixing the preparation by means of a loop to the bottom of the bath and the other is connected via a hook with the transducer above the bath vessel.
Subsequently, the preparations, corresponding to the calibration, are prestressed with about 80 mN and equilibrated from 50-100 minutes. During the equilibration phase, the nutrient solution in the bath vessels is renewed in 15 minute intervals. As soon as the resting muscle tonus of the preparation has stabilized, there takes place the cumulative addition of the agonist, whereby the addition of the next highest concentration first takes place when no further increase of contraction is recognisable (plateau). When the maximum contraction height of the preparation is achieved, the cumulative agonist addition is ended and the preparation is rinsed. After a further equilibration phase (v. supra), the cumulative addition of the agonist is repeated but this time in the presence of the test or reference antagonist.
3.6.1. The perfusion part consists of an L-shaped organ bath in the hollow space of which (longer limb) runs a double glass spiral through which the nutrient solution is passed into the actual bath vessel (28 ml. content; shorter limb). This bath vessel is divided into two chambers which are, however, connected together by two transverse connections. […] The inlet chambers as well as the feeding glass spirals are tempered from the outside to 37° C. by a separate liquid circulation. This tempering takes place with the help of a "Colora" ultra-thermostat type K (Colora Messtechnik GmbH, Dusseldorf, Germany) which serves as thermostat and pump. In order, in case of need, always to have available ready-for-use nutrient solution, above the organ bath is provided a double-walled storage container in which the nutrient solution is also tempered and carbogenised. This is connected via a glass stopcock and a polypropylene tube with double glass spiral in the interior of the organ bath.
3.6.2. The measurement and recording part includes a transducer (Statham-Universal-Zelle UC-2; Hugo Sachs Elektronic KG, Hugstetten, Germany). By means of a hanging-in weight, a force of 40 mN is produced on the transducer which passes as electrical signal via a connecting cable to a bridge amplifier. The amplification is smoothly so regulated that the force provided corresponds to a constant value on the scale or an analogous value on the millimeter paper of the recorder (dependent upon the amplification; see below). After fixing the organ, the preparation is prestressed to the doubled mark, corresponding to 80 mN. […]

[3] = pre-treatment 3×10^-7 mol ml^-1 kg^-1 i.p., 15 min before inhalation, w of acetyl-β-methylcholine chloride in atomised solution, control animals w=0.000539, higher = more protection
[4] = acetyl-β-methylcholine chloride w=0.000562, 10 tested, pre-treatment 3×10^-7 mol ml^-1 kg^-1 i.p.
[5] = acetyl-β-methylcholine chloride w=0.000562, pre-treatment 3×10^-7 mol ml^-1 kg^-1 i.p.
[6] = acetyl-β-methylcholine chloride w=0.001000, 10 tested (isoproterenol 9), pre-treatment 3×10^-7 mol ml^-1 kg^-1 i.p.
[7] = acetyl-β-methylcholine chloride w=0.001000, pre-treatment 3×10^-7 mol ml^-1 kg^-1 i.p.
[8] = acetyl-β-methylcholine chloride w=0.001780, pre-treatment 3×10^-7 mol ml^-1 kg^-1 i.p.
[9] = acetyl-β-methylcholine chloride w=0.001780, trospium chloride 10 tested, dehydrotrospium chloride 9, atropine 9, isoproterenol 8, pre-treatment 3×10^-7 mol ml^-1 kg^-1 i.p.
[10] = acetyl-β-methylcholine chloride w=0.003160, 10 tested (isoproterenol 9), pre-treatment 3×10^-7 mol ml^-1 kg^-1 i.p.
[11] = acetyl-β-methylcholine chloride w=0.003160, pre-treatment 3×10^-7 mol ml^-1 kg^-1 i.p.
[12] = acetyl-β-methylcholine chloride w=0.005620, 10 tested (isoproterenol 9), pre-treatment 3×10^-7 mol ml^-1 kg^-1 i.p.
[13] = acetyl-β-methylcholine chloride w=0.005620, pre-treatment 3×10^-7 mol ml^-1 kg^-1 i.p.

T1 sequence (H0W1Z3 1-590): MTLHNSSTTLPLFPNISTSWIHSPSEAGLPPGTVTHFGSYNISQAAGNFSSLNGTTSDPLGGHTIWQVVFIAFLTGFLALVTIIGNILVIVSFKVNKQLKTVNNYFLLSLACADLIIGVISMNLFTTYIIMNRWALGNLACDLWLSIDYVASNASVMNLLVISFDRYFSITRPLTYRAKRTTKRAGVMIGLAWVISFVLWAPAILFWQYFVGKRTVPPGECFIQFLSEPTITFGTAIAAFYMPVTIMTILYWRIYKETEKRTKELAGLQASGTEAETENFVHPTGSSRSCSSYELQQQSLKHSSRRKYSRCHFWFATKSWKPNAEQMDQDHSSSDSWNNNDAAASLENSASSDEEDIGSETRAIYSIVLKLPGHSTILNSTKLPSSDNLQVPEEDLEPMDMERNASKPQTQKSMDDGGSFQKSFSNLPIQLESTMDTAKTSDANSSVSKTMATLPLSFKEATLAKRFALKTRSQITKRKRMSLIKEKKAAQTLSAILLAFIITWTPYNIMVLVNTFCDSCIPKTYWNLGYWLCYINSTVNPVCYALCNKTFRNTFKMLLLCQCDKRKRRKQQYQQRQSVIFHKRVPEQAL

## CN1[C@@H]2CC[C@H]1C[C@@H](OC(=O)C(CO)c1ccccc1)C2 (stereo partly shown) [atropine chloride, atropine hydrochloride, reference compound]
[1]; [3]
  EC50: 1380 µg/mL
  EC50, average effective concentration w of acetyl-β-methylcholine chloride (provocation substance) after pre-treatment: 0.00138
[1]; [4]
  number of animals reacting: 3
[1]; [5]
  probit analysis reaction % observed: 30.00%
  probit analysis reaction % calculated: 38.93%
[1]; [6]
  number of animals reacting: 6
[1]; [7]
  probit analysis reaction % observed: 60.00%
  probit analysis reaction % calculated: 45.98%
[1]; [8]
  probit analysis reaction % observed: 55.56%
  probit analysis reaction % calculated: 53.16%
[1]; [9]
  number of animals reacting: 5
[1]; [10]
  number of animals reacting: 5
[1]; [11]
  probit analysis reaction % observed: 50.00%
  probit analysis reaction % calculated: 60.20%
[1]; [12]
  number of animals reacting: 7
[1]; [13]
  probit analysis reaction % observed: 70.00%
  probit analysis reaction % calculated: 66.95%
[2]
  antagonism against acetyl-β-methylcholine chloride / anticholinergic effectiveness (in words): dosage dependent antagonism

## O=C(O[C@H]1C[C@H]2CC[C@@H](C1)[N+]21CCCC1)C(O)(c1ccccc1)c1ccccc1 [trospium chloride, 3α-benziloyloxynortropane-8-spiro-1'-pyrrolidinium chloride]
[1]; 15 min after i.p. administration, equimolar dosages
  broncholytic effectiveness compared with atropine and isoproterenol (in words): comparable with or superior to the well known parasympatholytics atropine and the β-sympathomimetic isoproterenol; also recorded: greater effectiveness of the test substances, especially of trospium chloride, in comparison with the reference substances
[1]; [3]
  EC50: 2860 µg/mL
[1]; [4]
  number of animals reacting: 0
[1]; [5]
  probit analysis reaction % calculated: 5.46%
[1]; [6]
  number of animals reacting: 1
[1]; [7]
  probit analysis reaction % observed: 10.00%
  probit analysis reaction % calculated: 15.03%
[1]; [8]
  probit analysis reaction % observed: 50.00%
  probit analysis reaction % calculated: 32.00%
[1]; [9]
  number of animals reacting: 5
[1]; [10]
  number of animals reacting: 5
[1]; [11]
  probit analysis reaction % observed: 50.00%
  probit analysis reaction % calculated: 53.87%
[1]; [12]
  number of animals reacting: 7
[1]; [13]
  probit analysis reaction % observed: 70.00%
  probit analysis reaction % calculated: 74.66%
[1]; guinea pig, in vivo
  probit analysis reaction % observed, correction according to Bliss: 2.50
[1]; intraperitoneal, cholinergically-induced bronchial cramps, awake guinea pig
  broncholytic effect (in words): outstanding broncholytic effect
[2]; antagonism against acetyl-β-methylcholine chloride, read-out: pA2 ± s (converted)
  Kb: 0.55 nM
[2]; comparison of maximum effects in absence and presence of the antagonist, listed as MP 194
  quality of the antagonism (in words): competitively antagonistically effective; also recorded: competitive antagonism
[2]; comparison of pA2 values, t-test, listed as MP 194
  strength of activity compared with ipratropium bromide (in words): equivalent to the reference substance ipratropium bromide; also recorded: does not differ significantly; also recorded: equal to the reference substance ipratropium bromide
[2]; listed as MP 194
  antagonism against acetyl-β-methylcholine chloride / anticholinergic effectiveness (in words): comparable, dosage-dependent antagonism; also recorded: clear anticholinergic effectiveness

Source: US4780476A, “Azoniaspironortropanol esters as asthma therapeutics and broncholytics” (Madaus GmbH & Co., priority 1985, dated 1988)
